# Experimental data as given in paper PMC4503722, “Novel Phenotypic Outcomes Identified for a Public Collection of Approved Drugs from a Publicly Accessible Panel of Assays” (PLoS ONE, 2015).
# Test system: endothelial tube formation in co-cultures of ECFCs and ADSCs treated with VEGF
# Experiment: cells
# Assay type: cell-based, human
# Conditions: not given
SMILES,VEGF_ADSC\ECFC Angio CD31 TubeArea IC50/EC50 [µM],"IC50/EC50, VEGF_ADSC\ECFC Angio CD31 TubeArea (assay number 2) [µM]"
COC(=O)C1=C(C)NC(C)=C(C(=O)O[C@@H]2CCCN(Cc3ccccc3)C2)[C@@H]1c1cccc([N+](=O)[O-])c1.Cl [NCGC00185768-01],> 10,
C=CCCCCCCCCC(=O)OC [NCGC00166231-02],> 10,
CC/C=C\C/C=C\C/C=C\CCCCCCCC(=O)O [NCGC00091058-11],,> 10
C[C@H](O)CN(C)C [NCGC00166221-02],,> 10
O=C(Nc1ccc(Br)cc1)c1cc(Br)c(Br)s1 [NCGC00160448-02],> 10,
Cc1cccc(C)c1NC(=O)CC12CCCN1CCC2 [NCGC00167454-02],> 10,
COc1ccc2c(c1)c1c3n2CCN(C)C3=NCC1 [NCGC00072886-03],> 10,
C/C(=N\O)[C@@H](C)NCC(C)(C)CN[C@H](C)/C(C)=N/O [NCGC00319018-01],> 10,

# Test system: DLD-1
# Experiment: cells
# Assay type: cell-based
# Conditions: assay number 23
row,SMILES,Basal_Viability ATP DLD-1 IC50/EC50 [µM]
1,COC(=O)C1=C(C)NC(C)=C(C(=O)O[C@@H]2CCCN(Cc3ccccc3)C2)[C@@H]1c1cccc([N+](=O)[O-])c1.Cl [NCGC00185768-01],7.9596

# Same assay, conditions: assay number 23; basal
row,SMILES,Basal_Viability ATP DLD-1 IC50/EC50 [µM]
1,O=C(Nc1ccc(Br)cc1)c1cc(Br)c(Br)s1 [NCGC00160448-02],0.3353
2,Cc1cccc(C)c1NC(=O)CC12CCCN1CCC2 [NCGC00167454-02],> 20
3,COc1ccc2c(c1)c1c3n2CCN(C)C3=NCC1 [NCGC00072886-03],> 20
4,C/C(=N\O)[C@@H](C)NCC(C)(C)CN[C@H](C)/C(C)=N/O [NCGC00319018-01],> 20

# Same assay, conditions: assay number 23; concentration response
row,SMILES,Basal_Viability ATP DLD-1 IC50/EC50 [µM]
1,C=CCCCCCCCCC(=O)OC [NCGC00166231-02],> 20

# Same assay, conditions: basal
row,SMILES,"IC50/EC50, Basal_Viability ATP DLD-1 (assay number 23) [µM]"
1,CC/C=C\C/C=C\C/C=C\CCCCCCCC(=O)O [NCGC00091058-11],> 20
2,C[C@H](O)CN(C)C [NCGC00166221-02],> 20

# Test system: SW480
# Experiment: cells
# Assay type: cell-based
# Conditions: assay number 24
row,SMILES,Basal_Viability ATP SW480 IC50/EC50 [µM]
1,COC(=O)C1=C(C)NC(C)=C(C(=O)O[C@@H]2CCCN(Cc3ccccc3)C2)[C@@H]1c1cccc([N+](=O)[O-])c1.Cl [NCGC00185768-01],> 20

# Same assay, conditions: assay number 24; basal
row,SMILES,Basal_Viability ATP SW480 IC50/EC50 [µM]
1,O=C(Nc1ccc(Br)cc1)c1cc(Br)c(Br)s1 [NCGC00160448-02],0.1229
2,Cc1cccc(C)c1NC(=O)CC12CCCN1CCC2 [NCGC00167454-02],> 20
3,COc1ccc2c(c1)c1c3n2CCN(C)C3=NCC1 [NCGC00072886-03],> 20
4,C/C(=N\O)[C@@H](C)NCC(C)(C)CN[C@H](C)/C(C)=N/O [NCGC00319018-01],> 20

# Same assay, conditions: assay number 24; concentration response
row,SMILES,Basal_Viability ATP SW480 IC50/EC50 [µM]
1,C=CCCCCCCCCC(=O)OC [NCGC00166231-02],> 20

# Same assay, conditions: basal
row,SMILES,"IC50/EC50, Basal_Viability ATP SW480 (assay number 24) [µM]"
1,CC/C=C\C/C=C\C/C=C\CCCCCCCC(=O)O [NCGC00091058-11],> 20
2,C[C@H](O)CN(C)C [NCGC00166221-02],> 20

# Test system: HCT116
# Experiment: cells
# Assay type: cell-based
# Conditions: assay number 25; basal
row,SMILES,Basal_Viability ATP HCT116 IC50/EC50 [µM]
1,COC(=O)C1=C(C)NC(C)=C(C(=O)O[C@@H]2CCCN(Cc3ccccc3)C2)[C@@H]1c1cccc([N+](=O)[O-])c1.Cl [NCGC00185768-01],4.2797
2,O=C(Nc1ccc(Br)cc1)c1cc(Br)c(Br)s1 [NCGC00160448-02],0.5412
3,Cc1cccc(C)c1NC(=O)CC12CCCN1CCC2 [NCGC00167454-02],> 20
4,COc1ccc2c(c1)c1c3n2CCN(C)C3=NCC1 [NCGC00072886-03],> 20
5,C/C(=N\O)[C@@H](C)NCC(C)(C)CN[C@H](C)/C(C)=N/O [NCGC00319018-01],> 20

# Same assay, conditions: assay number 25; basal; concentration response
row,SMILES,Basal_Viability ATP HCT116 IC50/EC50 [µM]
1,C=CCCCCCCCCC(=O)OC [NCGC00166231-02],> 20

# Same assay, conditions: basal
row,SMILES,"IC50/EC50, Basal_Viability ATP HCT116 (assay number 25) [µM]"
1,CC/C=C\C/C=C\C/C=C\CCCCCCCC(=O)O [NCGC00091058-11],> 20
2,C[C@H](O)CN(C)C [NCGC00166221-02],> 20

# Test system: HCT116 cells treated with a GSK3β inhibitor
# Experiment: cells
# Assay type: cell-based
# Conditions: GSK3b inh pretreated
row,SMILES,"IC50/EC50, GSK3b inh pretreated_Viability ATP HCT116 (assay number 26) [µM]"
1,CC/C=C\C/C=C\C/C=C\CCCCCCCC(=O)O [NCGC00091058-11],> 20
2,C[C@H](O)CN(C)C [NCGC00166221-02],> 20

# Same assay, conditions: assay number 26; GSK3b inhibitor pretreated
row,SMILES,GSK3b inh pretreated_Viability ATP HCT116 IC50/EC50 [µM]
1,COC(=O)C1=C(C)NC(C)=C(C(=O)O[C@@H]2CCCN(Cc3ccccc3)C2)[C@@H]1c1cccc([N+](=O)[O-])c1.Cl [NCGC00185768-01],5.3147
2,O=C(Nc1ccc(Br)cc1)c1cc(Br)c(Br)s1 [NCGC00160448-02],0.3423
3,Cc1cccc(C)c1NC(=O)CC12CCCN1CCC2 [NCGC00167454-02],> 20
4,COc1ccc2c(c1)c1c3n2CCN(C)C3=NCC1 [NCGC00072886-03],> 20
5,C/C(=N\O)[C@@H](C)NCC(C)(C)CN[C@H](C)/C(C)=N/O [NCGC00319018-01],> 20

# Same assay, conditions: assay number 26; GSK3b inhibitor pretreated; concentration response
row,SMILES,GSK3b inh pretreated_Viability ATP HCT116 IC50/EC50 [µM]
1,C=CCCCCCCCCC(=O)OC [NCGC00166231-02],> 20

# Test system: Colo320
# Experiment: cells
# Assay type: cell-based
# Conditions: assay number 27
row,SMILES,Basal_Viability ATP Colo 320 IC50/EC50 [µM]
1,COC(=O)C1=C(C)NC(C)=C(C(=O)O[C@@H]2CCCN(Cc3ccccc3)C2)[C@@H]1c1cccc([N+](=O)[O-])c1.Cl [NCGC00185768-01],19.5148

# Same assay, conditions: assay number 27; basal
row,SMILES,Basal_Viability ATP Colo 320 IC50/EC50 [µM]
1,O=C(Nc1ccc(Br)cc1)c1cc(Br)c(Br)s1 [NCGC00160448-02],0.018
2,Cc1cccc(C)c1NC(=O)CC12CCCN1CCC2 [NCGC00167454-02],> 20
3,COc1ccc2c(c1)c1c3n2CCN(C)C3=NCC1 [NCGC00072886-03],> 20
4,C/C(=N\O)[C@@H](C)NCC(C)(C)CN[C@H](C)/C(C)=N/O [NCGC00319018-01],> 20

# Same assay, conditions: assay number 27; concentration response
row,SMILES,Basal_Viability ATP Colo 320 IC50/EC50 [µM]
1,C=CCCCCCCCCC(=O)OC [NCGC00166231-02],> 20

# Same assay, conditions: basal
row,SMILES,"IC50/EC50, Basal_Viability ATP Colo 320 (assay number 27) [µM]"
1,CC/C=C\C/C=C\C/C=C\CCCCCCCC(=O)O [NCGC00091058-11],> 20
2,C[C@H](O)CN(C)C [NCGC00166221-02],> 20

# Test system: HT-29
# Experiment: cells
# Assay type: cell-based
# Conditions: assay number 28
row,SMILES,Basal_Viability ATP HT-29 IC50/EC50 [µM]
1,COC(=O)C1=C(C)NC(C)=C(C(=O)O[C@@H]2CCCN(Cc3ccccc3)C2)[C@@H]1c1cccc([N+](=O)[O-])c1.Cl [NCGC00185768-01],5.2728

# Same assay, conditions: assay number 28; basal
row,SMILES,Basal_Viability ATP HT-29 IC50/EC50 [µM]
1,O=C(Nc1ccc(Br)cc1)c1cc(Br)c(Br)s1 [NCGC00160448-02],0.5199
2,Cc1cccc(C)c1NC(=O)CC12CCCN1CCC2 [NCGC00167454-02],> 20
3,COc1ccc2c(c1)c1c3n2CCN(C)C3=NCC1 [NCGC00072886-03],> 20
4,C/C(=N\O)[C@@H](C)NCC(C)(C)CN[C@H](C)/C(C)=N/O [NCGC00319018-01],> 20

# Same assay, conditions: assay number 28; concentration response
row,SMILES,Basal_Viability ATP HT-29 IC50/EC50 [µM]
1,C=CCCCCCCCCC(=O)OC [NCGC00166231-02],> 20

# Same assay, conditions: basal
row,SMILES,"IC50/EC50, Basal_Viability ATP HT-29 (assay number 28) [µM]"
1,CC/C=C\C/C=C\C/C=C\CCCCCCCC(=O)O [NCGC00091058-11],> 20
2,C[C@H](O)CN(C)C [NCGC00166221-02],> 20

# Test system: RKO
# Experiment: cells
# Assay type: cell-based
# Conditions: assay number 29
row,SMILES,Basal_Viability ATP RKO IC50/EC50 [µM]
1,COC(=O)C1=C(C)NC(C)=C(C(=O)O[C@@H]2CCCN(Cc3ccccc3)C2)[C@@H]1c1cccc([N+](=O)[O-])c1.Cl [NCGC00185768-01],8.0546

# Same assay, conditions: assay number 29; basal
row,SMILES,Basal_Viability ATP RKO IC50/EC50 [µM]
1,O=C(Nc1ccc(Br)cc1)c1cc(Br)c(Br)s1 [NCGC00160448-02],0.4312
2,Cc1cccc(C)c1NC(=O)CC12CCCN1CCC2 [NCGC00167454-02],> 20
3,COc1ccc2c(c1)c1c3n2CCN(C)C3=NCC1 [NCGC00072886-03],> 20
4,C/C(=N\O)[C@@H](C)NCC(C)(C)CN[C@H](C)/C(C)=N/O [NCGC00319018-01],> 20

# Same assay, conditions: assay number 29; concentration response
row,SMILES,Basal_Viability ATP RKO IC50/EC50 [µM]
1,C=CCCCCCCCCC(=O)OC [NCGC00166231-02],> 20

# Same assay, conditions: basal
row,SMILES,"IC50/EC50, Basal_Viability ATP RKO (assay number 29) [µM]"
1,CC/C=C\C/C=C\C/C=C\CCCCCCCC(=O)O [NCGC00091058-11],> 20
2,C[C@H](O)CN(C)C [NCGC00166221-02],> 20

# Test system: SNU-C1
# Experiment: cells
# Assay type: cell-based
# Conditions: assay number 30
row,SMILES,Basal_Viability ATP SNU-C1 IC50/EC50 [µM]
1,COC(=O)C1=C(C)NC(C)=C(C(=O)O[C@@H]2CCCN(Cc3ccccc3)C2)[C@@H]1c1cccc([N+](=O)[O-])c1.Cl [NCGC00185768-01],5.7601

# Same assay, conditions: assay number 30; basal
row,SMILES,Basal_Viability ATP SNU-C1 IC50/EC50 [µM]
1,O=C(Nc1ccc(Br)cc1)c1cc(Br)c(Br)s1 [NCGC00160448-02],1.0991
2,Cc1cccc(C)c1NC(=O)CC12CCCN1CCC2 [NCGC00167454-02],> 20
3,COc1ccc2c(c1)c1c3n2CCN(C)C3=NCC1 [NCGC00072886-03],> 20
4,C/C(=N\O)[C@@H](C)NCC(C)(C)CN[C@H](C)/C(C)=N/O [NCGC00319018-01],> 20

# Same assay, conditions: assay number 30; concentration response
row,SMILES,Basal_Viability ATP SNU-C1 IC50/EC50 [µM]
1,C=CCCCCCCCCC(=O)OC [NCGC00166231-02],> 20

# Same assay, conditions: basal
row,SMILES,"IC50/EC50, Basal_Viability ATP SNU-C1 (assay number 30) [µM]"
1,CC/C=C\C/C=C\C/C=C\CCCCCCCC(=O)O [NCGC00091058-11],> 20
2,C[C@H](O)CN(C)C [NCGC00166221-02],> 20

# Test system: ECFC/ADSC co-culture cell nuclei number
# Experiment: not given
# Conditions: not given
SMILES,VEGF_ADSC\ECFC Angio Hoechst NucArea IC50/EC50 [µM],"IC50/EC50, VEGF_ADSC\ECFC Angio Hoechst NucArea (assay number 3) [µM]"
COC(=O)C1=C(C)NC(C)=C(C(=O)O[C@@H]2CCCN(Cc3ccccc3)C2)[C@@H]1c1cccc([N+](=O)[O-])c1.Cl [NCGC00185768-01],> 10,
C=CCCCCCCCCC(=O)OC [NCGC00166231-02],> 10,
CC/C=C\C/C=C\C/C=C\CCCCCCCC(=O)O [NCGC00091058-11],,> 10
C[C@H](O)CN(C)C [NCGC00166221-02],,> 10
O=C(Nc1ccc(Br)cc1)c1cc(Br)c(Br)s1 [NCGC00160448-02],> 10,
Cc1cccc(C)c1NC(=O)CC12CCCN1CCC2 [NCGC00167454-02],> 10,
COc1ccc2c(c1)c1c3n2CCN(C)C3=NCC1 [NCGC00072886-03],> 10,
C/C(=N\O)[C@@H](C)NCC(C)(C)CN[C@H](C)/C(C)=N/O [NCGC00319018-01],> 10,
